Source: patent publication US9750248B2, “Synergistic fungicidal compositions” (Dow AgroSciences LLC, priority 2012, dated 2017)

Legend:
Format in all cases: in vivo
[1] = test system: Septoria tritici (SEPTTR); test: Control of wheat leaf blotch, one-day protective (1DP) application, greenhouse; conditions: for B % DC: component B alone; for A % DC: component A alone
Protocol: (§1) For the mixture studies with compound of Formula I: Treatments consisted of fungicides, including a compound of Formula I, tebuconazole, propiconazole, metconazole, and cyproconazole, applied either individually or as two-way mixtures with a compound of Formula I. Technical grades of materials were dissolved in acetone to make stock solutions which were used to perform three-fold dilutions in acetone for each individual fungicide component or for the two-way mixtures. Desired fungicide rates were obtained after mixing dilutions with nine volumes of water containing 110 parts per million (ppm) Triton X-100. The fungicide solutions (10 milliliters (mL)) were applied onto six pots of plants using an automated booth sprayer, which utilized two 6218-1/4 JAUPM spray nozzles operating at 20 pounds per square inch (psi) set at opposing angles to cover both leaf surfaces. All sprayed plants were allowed to air dry prior to further handling. Control plants were sprayed in the same manner with a solvent blank.
(§2) For the one-day protectant experiments, the plants were inoculated with an aqueous spore suspension of the pathogen of interest (either PUCCRT or SEPTTR) and then placed in a dew room from 1-3 days to allow for infection to occur. The plants were then placed in the greenhouse for symptom development to occur. In the case of PUCCRT, symptoms typically appeared in 7-10 days while for SEPTTR symptoms typically appeared in 25-30 days.
(§3) When disease severity reached 50-100% on the control plants, infection levels were assessed on treated plants visually and scored on a scale of 0 to 100 percent. The percentage of disease control was then calculated using the ratio of disease on treated plants relative to control plants.
(§4) The Colby equation was used to determine the fungicidal effects expected from the mixtures. (See Colby, S. R. Calculation of the synergistic and antagonistic response of herbicide combinations, Weeds 1967, 15, 20-22.). More specifically, in Tables 1-5, Colby's equation was used to calculate the expected activity of mixtures containing two active ingredients, A and B: Expected=A+B−(A×B/100), wherein

[2] = test system: Puccinia recondita-tritici (PUCCRT); test: Control of wheat brown rust, one-day protective (1DP) application, greenhouse; conditions: for B % DC: component B alone; for A % DC: component A alone
Protocol: as §1, §2, §3, §4

[3] = test system: Puccinia recondita-tritici (PUCCRT); test: Control of wheat brown rust, three-day curative (3DC) application, greenhouse; conditions: for B % DC: component B alone; for A % DC: component A alone
Protocol: as §1
(§5) For the three-day curative experiments, plants were inoculated with an aqueous spore suspension of the pathogen of interest (either PUCCRT or SEPTTR) and then placed in a dew room from 1-3 days to allow for infection to occur. The plants were removed from the dew room, allowed to dry for approximately one hour (h), sprayed with the test materials formulated as described above, and then placed in the greenhouse for symptom development to occur as described previously.
as §3, §4

[4] = test system: Septoria tritici (SEPTTR); test: Control of wheat leaf blotch, three-day curative (3DC) application, greenhouse; conditions: for B % DC: component B alone; for A % DC: component A alone
Protocol: as §1, §5, §3, §4

[5] = test system: Puccinia recondita-tritici (PUCCRT); test: Control of wheat brown rust in a field research trial; conditions: for B % DC: component B alone
Protocol: as §4
The field trial was conducted at the Dow AgroSciences field station located at Mogi Mirim, Brazil. There were four replicate plots per treatment, with each plot 2×3.5 meters in length and width. The plots were sprayed with the treatments twice, once at growth stage BBCH 33 and again at growth stage BBCH 61-65. Treatments were applied with spray volumes of 150 liters/hectare (L/ha) with an XR flat fan nozzle. Disease development relied on natural inoculum (no artificial infestation). Ten plants per plot were used for each disease severity assessment, with all leaves per plant used for the assessment.

| Structure (SMILES) | B % DC ([1]; 0.1 ppm) [%] | B % DC ([2]; 0.4 ppm) [%] | B % DC ([2]; 1.6 ppm) [%] | B % DC ([2]; 6.3 ppm) [%] | B % DC ([3]; 0.4 ppm) [%] | B % DC ([1]; 0.4 ppm) [%] | B % DC ([1]; 1.6 ppm) [%] | B % DC ([2]; 0.1 ppm) [%] | B % DC ([4]; 0.1 ppm) [%] | B % DC ([3]; 1.6 ppm) [%] | also measured |
| --- | --- | --- | --- | --- | --- | --- | --- | --- | --- | --- | --- |
| CC1(C)CCC(Cc2ccc(Cl)cc2)C1(O)Cn1cncn1 (centres unmarked) [Metconazole, 5-[(4-chlorophenyl)methyl]-2,2-dimethyl-1-(1H-1,2,4-triazol-1-ylmethyl)cyclopentanol] | 9 | 0 | 8 | 87 | 4 |  |  |  |  |  |  |
| CC(C1CC1)C(O)(Cn1cncn1)c1ccc(Cl)cc1 (stereo not drawn) [Cyproconazole, α-(4-chlorophenyl)-α-(1-cyclopropylethyl)-1H-1,2,4-triazole-1-ethanol] |  | 0 | 27 | 57 | 82 | 9 | 19 | 0 | 44.0 |  | B % DC ([5]; 40 g ai/ha): 38% |
| CC(C)(C)C(O)(CCc1ccc(Cl)cc1)Cn1cncn1 (stereo not drawn) [Tebuconazole, α-[2-(4-chlorophenyl)ethyl]-α-(1,1-dimethylethyl)-1H-1,2,4-triazole-1-ethanol] |  | 0 | 18 | 82 | 2 | 0 | 34 | 0 | 23.0 | 87 | B % DC ([5]; 140 g ai/ha): 74.3% |
| CCCC1COC(Cn2cncn2)(c2ccc(Cl)cc2Cl)O1 (centres unmarked) [Propiconazole, 1-[[2-(2,4-dichlorophenyl)-4-propyl-1,3-dioxolan-2-yl]methyl]-1H-1,2,4-triazole] | 0 |  | 0 | 0 |  |  | 29 | 0 |  | 2 | B % DC ([1]; 6.3 ppm): 68%; B % DC ([3]; 6.3 ppm): 93% |
| COc1ccnc(C(=O)N[C@H]2COC(=O)[C@H](Cc3ccccc3)[C@@H](OC(=O)C(C)C)[C@H](C)OC2=O)c1OCOC(=O)C(C)C [Cmpd I, (3S,6S,7R,8R)-8-benzyl-3-(3-((isobutyryloxy)methoxy)-4-methoxypicolinamido)-6-methyl-4,9-dioxo-1,5-dioxonan-7-yl isobutyrate] |  |  |  |  |  |  |  |  |  |  | A % DC ([1]; 0.1 ppm): 7%; A % DC ([1]; 0.4 ppm): 19%; A % DC ([1]; 1.6 ppm): 53%; A % DC ([2]; 0.4 ppm): 0%; A % DC ([2]; 1.6 ppm): 19.6%; A % DC ([2]; 6.3 ppm): 85.5%; A % DC ([4]; 0.1 ppm): 45.3%; A % DC ([4]; 1.6 ppm): 55.2%; A % DC ([4]; 6.3 ppm): 70.1%; A % DC ([5]; component A alone, 150 g ai/ha): 34.1%; A % DC ([3]; 0.1 ppm): 0%; A % DC ([3]; 0.4 ppm): 0%; A % DC ([3]; 1.6 ppm): 0%; A % DC ([3]; 6.3 ppm): 0% |
| COC(=O)N(OC)c1ccccc1COc1ccn(-c2ccc(Cl)cc2)n1 [Pyraclostrobin, pyraclostrobin] |  |  |  |  |  |  |  |  |  |  | B % DC ([5]; 60 g ai/ha): 85.8% |
